From patent US10112899B2 (ViiV HEALTHCARE UK LIMITED, priority 2014, dated 2018) come the findings set out here.

The test system of this experiment is HIV in the HTLV-1 transformed cell line MT-4. Briefly: organism not typed. The class given is cell-based. As to conditions: MT4, 96 h, MT-4 cells; luciferase/cell titer glo readout after 96 hours; 10 point dose response. A general note: ATP-based viability assays read luminescence as a measure of living cells.

Broadly, the IC50 is the concentration at which inhibition is half-maximal. Read a high IC50 as lower potency. `Cc1ccc(-c2c(C)c3c(c(C)c2[C@H](OC(C)(C)C)C(=O)O)CN(C(=O)c2cc(Cl)ccc2C)C3)cc1` [Example 263, (S)-2-(tert-butoxy)-2-(2-(5-chloro-2-methylbenzoyl)-4,7-dimethyl-6-(p-tolyl)isoindolin-5-yl)acetic acid]: the concentration for half-maximal inhibition (IC50) was determined as 6 nM. The compound `Cc1c(-c2c(C)c3c(c(C)c2[C@H](OC(C)(C)C)C(=O)O)CN(C(=O)N2CCCCC2)C3)cc(F)c2c1NCCO2` [Example 318, (2S)-2-(tert-butoxy)-2-(6-(8-fluoro-5-methyl-3,4-dihydro-2H-benzo[b][1,4]oxazin-6-yl)-4,7-dimethyl-2-(piperidine-1-carbonyl)isoindolin-5-yl)acetic acid] returned an IC50 of 5 nM. The value for `Cc1ccc(-c2c(C)c3c(c(C)c2[C@H](OC(C)(C)C)C(=O)O)CN(C(=O)C2(C)CCCCC2)C3)cc1` [Example 243, (S)-2-(tert-butoxy)-2-(4,7-dimethyl-2-(1-methylcyclohexanecarbonyl)-6-(p-tolyl)isoindolin-5-yl)acetic acid] was 18 nM; that for `Cc1ccc(-c2c(C)c3c(c(C)c2C(OC(C)(C)C)C(=O)O)CN(CC2CCCCC2)C3)cc1` (centres unmarked) [Example 10, 2-(tert-butoxy)-2-(2-(cyclohexylmethyl)-4,7-dimethyl-6-(p-tolyl)isoindolin-5-yl)acetic acid] was 71 nM; that for `Cc1c(-c2c(C)c3c(c(C)c2[C@H](OC(C)(C)C)C(=O)O)CN(C(=O)N2CCCC(C)(C)CC2)C3)cc(F)c2c1CCCO2` (atropisomer, axis not shown; (M)) [Example 206, (S)-2-(tert-butoxy)-2-((M)-2-(4,4-dimethylazepane-1-carbonyl)-6-(8-fluoro-5-methylchroman-6-yl)-4,7-dimethylisoindolin-5-yl)acetic acid] was 5 nM. Turning to `Cc1ccc(-c2c(C)c3c(c(C)c2[C@H](OC(C)(C)C)C(=O)O)CN(C(=O)C2CC4(CCC4)C2)C3)cc1` [Example 118, (S)-2-(tert-butoxy)-2-(4,7-dimethyl-2-(spiro[3.3]heptane-2-carbonyl)-6-(p-tolyl)isoindolin-5-yl)acetic acid], the half-maximal inhibitory concentration (IC50) is 14 nM. For the compound `Cc1ccc(-c2c(C)c3c(c(C)c2[C@H](OC(C)(C)C)C(=O)O)CN(C(=O)c2cc(F)cc(C(N)=O)c2)C3)cc1` [Example 266, (S)-2-(tert-butoxy)-2-(2-(3-carbamoyl-5-fluorobenzoyl)-4,7-dimethyl-6-(p-tolyl)isoindolin-5-yl)acetic acid], the half-inhibitory concentration (IC50) is 126 nM. As to `Cc1ccc(-c2c(C)c3c(c(C)c2[C@H](OC(C)(C)C)C(=O)O)CN(C(=O)NCC2CCCCC2)C3)cc1` [Example 58, (2S)-2-(tert-butoxy)-2-{2-[(cyclohexylmethyl)carbamoyl]-4,7-dimethyl-6-(4-methylphenyl)-2,3-dihydro-1H-isoindol-5-yl}acetic acid], the IC50 turned out to be 350 nM.

`Cc1c(-c2c(C)c3c(c(C)c2[C@H](OC(C)(C)C)C(=O)O)CN(C(=O)N2CCCCC2)C3)ccc2c1NCCO2` [Example 319, (2S)-2-(tert-butoxy)-2-(4,7-dimethyl-6-(5-methyl-3,4-dihydro-2H-benzo[b][1,4]oxazin-6-yl)-2-(piperidine-1-carbonyl)isoindolin-5-yl)acetic acid] came in with an IC50 of 4 nM. The value for `Cc1ccc(-c2c(C)c3c(c(C)c2[C@H](OC(C)(C)C)C(=O)O)CN(C(=O)NC(C)(C)c2ccccc2)C3)cc1` [Example 97, (S)-2-(tert-butoxy)-2-(4,7-dimethyl-2-((2-phenylpropan-2-yl)carbamoyl)-6-(p-tolyl)isoindolin-5-yl)acetic acid] was 144 nM; that for `Cc1ccc(-c2c(C)c3c(c(C)c2[C@H](OC(C)(C)C)C(=O)O)CNC3)cc1` [Example 124, (S)-2-(tert-butoxy)-2-(4,7-dimethyl-6-(p-tolyl)isoindolin-5-yl)acetic acid] was 1090 nM; that for `Cc1ccc(-c2c(C)c3c(c(C)c2[C@H](OC(C)(C)C)C(=O)O)CN(C(=O)N2CCCC[C@H]2C)C3)cc1` [Example 69, (2S)-2-(tert-butoxy)-2-[4,7-dimethyl-6-(4-methylphenyl)-2-[(2R)-2-methylpiperidine-1-carbonyl]-2,3-dihydro-1H-isoindol-5-yl]acetic acid] was 14 nM. As for `Cc1ccc(-c2c(C)c3c(c(C)c2[C@H](OC(C)(C)C)C(=O)O)CN(C(=O)c2ccn(C)n2)C3)cc1` [Example 240, (S)-2-(tert-butoxy)-2-(4,7-dimethyl-2-(1-methyl-1H-pyrazole-3-carbonyl)-6-(p-tolyl)isoindolin-5-yl)acetic acid], the half-maximal inhibitory concentration (IC50) came out at 121 nM.

Compound `Cc1ccc(-c2c(C)c3c(c(C)c2[C@H](OC(C)(C)C)C(=O)O)CN(Cc2cccc(F)c2C)C3)cc1` [Example 47, (2S)-2-(tert-butoxy)-2-{2-[(3-fluoro-2-methylphenyl)methyl]-4,7-dimethyl-6-(4-methylphenyl)-2,3-dihydro-1H-isoindol-5-yl}acetic acid] had an IC50 of 44 nM. In turn, `Cc1ccc(CN2Cc3c(C)c(-c4ccc(C)cc4)c([C@H](OC(C)(C)C)C(=O)O)c(C)c3C2)cc1` [Example 20, (S)-2-(tert-butoxy)-2-(4,7-dimethyl-2-(4-methylbenzyl)-6-(p-tolyl)isoindolin-5-yl)acetic acid] registered an IC50 of 115 nM. As for `COc1cccc(C(=O)N2Cc3c(C)c(-c4ccc(C)cc4)c([C@H](OC(C)(C)C)C(=O)O)c(C)c3C2)c1C` [Example 258, (S)-2-(tert-butoxy)-2-(2-(3-methoxy-2-methylbenzoyl)-4,7-dimethyl-6-(p-tolyl)isoindolin-5-yl)acetic acid], half-maximal inhibition (IC50) required 15 nM. `Cc1ccc(-c2c(C)c3c(c(C)c2[C@H](OC(C)(C)C)C(=O)O)CN(C(=N)N2CCCCC2)C3)cc1` [Example 128, (S)-2-(tert-butoxy)-2-(2-(imino(piperidin-1-yl)methyl)-4,7-dimethyl-6-(p-tolyl)isoindolin-5-yl)acetic acid]: inhibition was half-maximal at 8540 nM (IC50).

In turn, `Cc1c(-c2c(C)c3c(c(C)c2[C@H](OC(C)(C)C)C(=O)O)CN(C(=O)N2CCC(F)(F)CC2)C3)cc(F)c2c1CCCO2` (atropisomer, axis not shown; (M)) [Example 213, (S)-2-(tert-butoxy)-2-((M)-2-(4,4-difluoropiperidine-1-carbonyl)-6-(8-fluoro-5-methylchroman-6-yl)-4,7-dimethylisoindolin-5-yl)acetic acid] displayed a half-inhibitory concentration (IC50) of 3 nM.

`COc1cc(F)cc(C(=O)N2Cc3c(C)c(-c4ccc(C)cc4)c([C@H](OC(C)(C)C)C(=O)O)c(C)c3C2)c1` [Example 122, (S)-2-(tert-butoxy)-2-(2-(3-fluoro-5-methoxybenzoyl)-4,7-dimethyl-6-(p-tolyl)isoindolin-5-yl)acetic acid] gave a half-inhibitory concentration (IC50) of 3 nM. Consider `COc1ccc(C)cc1C(=O)N1Cc2c(C)c(-c3cc(F)c4c(c3C)CCCO4)c([C@H](OC(C)(C)C)C(=O)O)c(C)c2C1` (atropisomer, axis not shown; (M)) [Example 183, (S)-2-(tert-butoxy)-2-((M)-6-(8-fluoro-5-methylchroman-6-yl)-2-(2-methoxy-5-methylbenzoyl)-4,7-dimethylisoindolin-5-yl)acetic acid], for which the 50% inhibitory concentration (IC50) came out at 4 nM. For `Cc1ccc(-c2c(C)c3c(c(C)c2[C@H](OC(C)(C)C)C(=O)O)CN(Cc2ccc(Cl)c(Cl)c2)C3)cc1` [Example 26, (S)-2-(tert-butoxy)-2-(2-(3,4-dichlorobenzyl)-4,7-dimethyl-6-(p-tolyl)isoindolin-5-yl)acetic acid], the 50% inhibitory concentration (IC50) amounted to 54 nM. With `Cc1ccc(-c2c(C)c3c(c(C)c2[C@H](OC(C)(C)C)C(=O)O)CN(C(=O)c2ccc(C(C)(C)C)cc2)C3)cc1` [Example 224, (S)-2-(tert-butoxy)-2-(2-(4-(tert-butyl)benzoyl)-4,7-dimethyl-6-(p-tolyl)isoindolin-5-yl)acetic acid], inhibition was half-maximal at 44 nM (IC50). Compound `Cc1ccc(-c2c(C)c3c(c(C)c2[C@H](OC(C)(C)C)C(=O)O)CN(C(=O)c2cc(Cl)cc(Cl)c2)C3)cc1` [Example 271, (S)-2-(tert-butoxy)-2-(2-(3,5-dichlorobenzoyl)-4,7-dimethyl-6-(p-tolyl)isoindolin-5-yl)acetic acid] returned a half-maximal inhibitory concentration (IC50) of 8 nM. The compound `Cc1ccc(-c2c(C)c3c(c(C)c2[C@H](OC(C)(C)C)C(=O)O)CN(C(=O)C(=O)N2CCCCC2)C3)cc1` [Example 129] yielded a 50% inhibitory concentration (IC50) of 14 nM. Compound `Cc1ccc(-c2c(C)c3c(c(C)c2[C@H](OC(C)(C)C)C(=O)O)CN(Cc2cccc(C(=O)N4CCCCC4)c2)C3)cc1` [Example 44, (2S)-2-(tert-butoxy)-2-[4,7-dimethyl-6-(4-methylphenyl)-2-{[3-(piperidine-1-carbonyl)phenyl]methyl}-2,3-dihydro-1H-isoindol-5-yl]acetic acid] returned an IC50 of 3350 nM. The value for `Cc1ccc(-c2c(C)c3c(c(C)c2[C@H](OC(C)(C)C)C(=O)O)CN(C(=O)c2cccc4c2OCO4)C3)cc1` [Example 275, (S)-2-(2-(benzo[d][1,3]dioxole-4-carbonyl)-4,7-dimethyl-6-(p-tolyl)isoindolin-5-yl)-2-(tert-butoxy)acetic acid] was 5 nM; that for `Cc1ccc(-c2c(C)c3c(c(C)c2[C@H](OC(C)(C)C)C(=O)O)CN(C(=O)NC2CCC(C)CC2)C3)cc1` (stereo partly drawn) [Example 54, (2S)-2-(tert-butoxy)-2-[4,7-dimethyl-6-(4-methylphenyl)-2-{[(1r,4r)-4-methylcyclohexyl]carbamoyl}-2,3-dihydro-1H-isoindol-5-yl]acetic acid] was 288 nM. The value for `Cc1ccc(-c2c(C)c3c(c(C)c2[C@H](OC(C)(C)C)C(=O)O)CN(C(=O)[C@H]2CCOC2)C3)cc1` [Example 231, (S)-2-(tert-butoxy)-2-(4,7-dimethyl-2-((S)-tetrahydrofuran-3-carbonyl)-6-(p-tolyl)isoindolin-5-yl)acetic acid] was 37 nM; that for `CC(=O)N1CCN(C(=O)N2Cc3c(C)c(-c4ccc(C)cc4)c([C@H](OC(C)(C)C)C(=O)O)c(C)c3C2)CC1` [Example 85, (S)-2-(2-(4-acetylpiperazine-1-carbonyl)-4,7-dimethyl-6-(p-tolyl)isoindolin-5-yl)-2-(tert-butoxy)acetic acid] was 120 nM.
